{"source": "patent US20250051391A1", "about": "“PEPTIDE INHIBITORS AND METHODS FOR INHIBITING PROTEIN AGGREGATION IN NEURONS AND NEURODEGENERATIVE DISEASES” (THE GOVERNING COUNCIL OF THE UNIVERSITY OF TORONTO, priority 2021, published 2025)", "key": {"[1]": {"target": "T1, CHMP2B (Homo sapiens, UniProt Q9UQN3)", "T1 construct": "against CHMP2B 1-199 truncation and CHMP2B full length; His tag (implied by Ni-NTA purification; pET-DEST42 vector); made in house; host or cells: E. coli Overexpress C41", "assay": "a-syn competition fluorescence polarization assay (FITC-Pdpep1.3 and CHMP2B)", "assay_type": "binding", "conditions": "50 nM FITC-Pdpep1.3, 1 μM CHMP2B, a-syn titrated"}, "[2]": {"target": "T2, CHMP2B-VPS4 interaction (Homo sapiens, UniProt Q9UQN3)", "T2 construct": "expressed in transfected cells; host or cells: HEK293T", "assay": "Co-immunoprecipitation: disruption of VPS4B-CHMP2B interaction", "assay_type": "cell-based", "conditions": "Flag-VPS4B, HA-tagged CHMP proteins, GFP-tagged peptides", "experimental": "HEK293T cells were co-transfected with Flag-tagged target protein, HA-tagged source protein, and GFP-tagged peptide or GFP. Cells were lysed 48 h after transfections with radioimmune precipitation assay buffer (50 mM Tris-HCl pH7.4, 1% Nonidet P-40, 150 mM NaCl, 1 mM EDTA, 10 mM Na3VO4, 10 mM sodium pyrophosphate, 25 mM NaF, 1× protease inhibitor mixture (Sigma)) for 30 min at 4° C. and coimmunoprecipitated with Flag beads (Clontech). The resulting immunocomplexes were analyzed by immunoblot using the appropriate antibodies. Protein samples were separated using 4-20% Mini-PROTEAN Tris-glycine gels (Bio-Rad) transferred to PVDF membranes and blocked in 5% milk containing PBS-Tween-20 (0.1%) for 1 h. PVDF membranes were then incubated with specified primary antibodies followed by incubation with horseradish peroxidase-conjugated secondary antibodies (Santa Cruz Biotechnology) and detected using enhanced chemiluminescence (GE Healthcare)."}, "[3]": {"test_system": "rat substantia nigra dopaminergic neurons", "assay": "AAV V1S/SV2 a-syn oligomer rat model", "assay_type": "in vivo", "experimental": "Adult female Sprague-Dawley rats (250-280 g; Envigo) were pair-housed in cages with wood bedding and had access to food and water ad libitum. The animal colony was maintained in a regular 12-h light/dark cycle. All procedures were approved by the University Health Network Animal Care Committee in accordance with guidelines and regulations set by the Canadian Council on Animal Care.\nAnimals were secured in a stereotactic frame under isoflurane/oxygen anaesthesia and ketoprofen (5 mg/kg) analgesia. The surgical site was shaved and sterilized with iodine/betadine prior to making a 2 cm incision along the midline. The scalp was exposed and a unilateral injection targeting the SN was performed at coordinates AP−5.2 mm, ML−2 mm and DV−7.4 mm with respect to the bregma as a point of reference. For each animal, a total volume of 2 μl of virus was injected at a rate of 0.5 μl/min using a microinjection pump and 10 μl Hamilton syringe with a 26-gauge needle. For A53T groups, 1 μl (low dose) or 1.34 μl (high dose) of AAV1/2-A53T a-syn (5.1×10^12 genomic particles/ml), 0.14 μl of AAV1/2-Pdpep1.3-GFP or scramble1.3-GFP (5.1×10^12 genomic particles/ml) and 0.86 μl or 0.52 μl of sterile PBS was injected; for EV groups, 1 μl (low dose) or 1.34 μl (high dose) of AAV1/2-EV (5.1×10^12 genomic particles/ml) replaced AAV1/2-A53T. For V1S+SV2 groups, 0.58 μl of AAV1/2-V1S (1.1×10^12 genomic particles/ml), 0.58 μl of AAV1/2-SV2 (1.1×10^12 genomic particles/ml), 0.14 μl of AAV1/2-Pdpep1.3-RFP or scramble1.3-RFP (5.1×10^12 genomic particles/ml) and 0.7 μl of sterile PBS was injected; for the YFP groups, 1.16 μl of AAV1/2-YFP (1.1×10^12 genomic particles/ml), 0.14 μl of AAV1/2-Pdpep1.3-RFP or scramble1.3-RFP (5.1×10^12 genomic particles/ml) and 0.7 μl of sterile PBS was injected. At the end of virus injection, the needle remained in place for 5 minutes before gradual removal.\nAnimals were uthanized by transcardial perfusion with heparinised saline under isoflurane/oxygen anaesthesia. Brains were then removed and the ventral part, including the ventral striatum, was snap frozen in liquid dry ice-cooled isopentane. […]\nImmunofluorescence staining for a-syn, tyrosine hydroxylase and LAMP1 was performed by washing free-floating sections with PBS-T (0.2% Triton X-100) three times for 10 min each at room temperature. […] Sections were then mounted onto glass slides and allowed to dry and then fluorescence mounting medium (DAKO) was applied followed by cover slips.\nConfocal images of immunofluorescent staining were acquired with a Zeiss LSM880 confocal microscope equipped with 405, 488, 555, and 639 nm laser lines. All images were taken within the linear range at constant gain and pinhole settings at optimal resolution settings determined by the software. […]"}}, "note": "Ends that are not written are not given here.", "data": [{"sequence": "DEEIERQLKALG [PDpep1.3]", "values": [{"measurement": "competition with a-syn for binding to CHMP2B", "setting": "[1]", "result": "competed for binding to CHMP2B"}, {"measurement": "effect on CHMP2B-VPS4 interaction (co-immunoprecipitation)", "setting": "[2]", "result": "disrupted the interaction between VPS4B and CHMP2B"}, {"measurement": "effect on CHMP2B-VPS4 interaction (co-immunoprecipitation)", "setting": "[2]; listed as Pdpep1.3", "result": "inhibits the CHMP2B-VPS4 interaction"}, {"measurement": "surviving dopaminergic neurons in the SN and terminals in the striatum (TH)", "setting": "[3]; 6 weeks post-injection", "result": "increase in surviving dopaminergic neurons"}, {"measurement": "total a-syn positive area in the SN", "setting": "[3]; 6 weeks post-injection", "result": "decrease"}, {"measurement": "a-syn oligomer levels measured by YFP positive area in SN and striatum", "setting": "[3]; 6 weeks post-injection, vs Scramble1.3", "result": "significant reduction"}, {"measurement": "YFP mean fluorescence intensity in SN cells positive for TH and RFP", "setting": "[3]; rats, V1S/SV2, 6 weeks post-injection, AAV-expressed RFP peptide", "result": "0.063±0.0167", "unit": "RFU"}]}]}
